# Experimental data as given in US20220202912A1, “Polypeptides in Preparation of Drugs for Treatment or Prevention of Rheumatoid Arthritis” (priority 2011, published 2022).
# “And” between values parts separate entries of the source, which are not always exact repeats. Equal values may be shown once. Where no end group is shown, it is not given here.
# Experiments:
# TNF-α = assay: in vivo imaging of TNF-α expression, carrageenan-induced TNF-luc mice; parameters: species or system BALB/c transgenic TNF-luc mice; details: Adalimumab 8 mg/kg, mPEG-SC20k-HM-3 20 mg/kg sc
# Method: At 8 time points, hour 0, hour 2, hour 4, hour 8, hour 12, hour 24, hour 48 and hour 72 after modeling, fluorescein is injected intraperitoneally into each group of mice. After the mice are lightly anesthetized with ether, the mice are fixed within 5-20 min and put into an in vivo imager, the imager is covered with an instrument lid, on-fluro and om-photo names in the desktop imaging interface of the computer are clicked, and the expose button is clicked to complete the fluorescence and white light photos of mice in vivo imaging. The specific imaging principle, operation steps, image processing and output are the same as those in the previous embodiment.
# In vivo imaging results of mice are processed with Carestream Molecular Imaging Software 5.3, and the luminous area is used as the determination of results. The fluorescence areas of the groups after optimization are compared.
# (1) Imaging principle: Fluorescein substrate is injected intraperitoneally, and binds to luciferase carried on TNF-α protein to catalyze luminescence. Through the Luciferase fluorescent reporter group on TNF, the change of the fluorescence area in mice is observed, and the expression of TNF-α is evaluated, so as to evaluate the impact of mPEG-SC20k-HM-3 on the expression of TNF-α.
# (2) Operation steps: Start the Carestreama in vivo imager, open the MI software, click the Capture button, and set photographing conditions. In the on-flour fluorescence mode, set the parameters X Binning. 2 pixels, Y Binning. 2 pixels; Illumination Source: Multi-wavelength; f-stop: 2.50; field of view (FOV) (mm): 120; focal plane (mm): Tray. Excitation filter: 430 nm, emission filter: 535 nm; exposure time: 30s. Click the Expose button to photograph fluorescence. Under the om-photo name, set the parameters X Binning. 0 pixels, Y Binning. 0 pixels; Illumination Source: None; f-stop: 2.50; FOV (mm): 120; focal plane (mm): Tray. Excitation filter: 0 nm, emission filter: 0 nm; exposure time: 0.175 s. Click the Expose button to photograph white light.
# (3) Image processing and output: Analyze and adjust photos of fluorescence function imaging and white light structure imaging to the best, and the FOV is consistent. Click Window→Tie, Display→Invert, Image Display→overlay→Transparency for image stacking. In the image output process, in a navigation panel, click Annotation→Width/Heigh→Scale Analysis Image for setting, click Add Annotation Bar for adding a title, click Add Intensity Scale for adding a ruler, and set Horizontal, Size, Style, Number of Significant Dig, and Horizontal/Vertical Length. Output a picture in Tiff format.
# [1] = system: macrophages (PMA-induced U937 cells); assay: Western blot of protein expression in macrophages (PMA-induced U937 cells); format: cell-based, human
# Method: (§1) 3.1 U937 cells are added to a 6-well plate (1.5×10^5 cells/mL), PMA (25 ng/mL) is used for induction for 48 h, and the cells adhere and differentiate into macrophages. Positive drug Adalimumab (25 μg/mL, 50 μg/mL, 100 μg/mL, 200 μg/mL, 400 μg/mL), Avastin (25 μg/mL, 50 μg/mL) are added, the final concentrations of mPEG-SC20k-HM-3 are 2.25, 4.5, 9.0, 13.5, 18.0, 36 μmol/L, and isovolumetric PBS is added to the blank group and the model group. The cells are incubated in a CO2 incubator at 37° C. for 24 or 48 h. Rat synovial cells are induced with LPS for 24 h and then mPEG-SC20k-HM-3 is administrated to final concentrations of 2.25, 4.5, 9.0, 13.5, 18.0 μmol/L, and the cells are incubated in a CO2 incubator at 37° C. for 48 h.
# (§2) 3.3 A protein extract solution is added at 20 μL/1×10^5 cells, and the cells are pipetted and dispersed, and stand at 4° C. for 30 min to lyse the cells.
# (§3) 3.4 1/4 volume of 5×protein loading buffer is added, and boiling water bath is performed for 5-10 min.
# (§4) 3.5 20 μL of protein sample is taken and 10% SDS-PAGE electrophoresis is performed.
# (§5) 3.6 The protein on the gel is transferred to the PVDF membrane by using a wetting transfer method with a constant current of 100 mA for 1-2.5 h.
# (§6) 3.7 The PVDF membrane is blocked with a blocking solution at room temperature for 2 h.
# (§7) 3.8 The membrane is washed for 3 times with PBST, 5 min each time. A primary antibody is added and the membrane stands at 4° C. overnight or is incubated at 37° C. for 2 h.
# 3.9 The membrane is washed for 3 times with PBST, 5 min each time. A secondary antibody is added and the membrane is incubated at room temperature for more than 2 h.
# 3.10 The membrane is exposed in a gel imager using an ECL detection kit.
# HUVECs = assay: Western blot of protein expression in HUVECs; format: cell-based, human; details: 0.5-8.0 μmol/L, 24 h
# Method: 3.2 After the third generation of human umbilical vein endothelial cells (HUVECs) are cultured in a 6-well plate to more than 80% fusion, the polypeptide mPEG-SC20k-HM-3 is added to final concentrations of 0.5, 1.0, 2.0, 4.0, 8.0 μmol/L, and PBS is used as a blank control. The cells are incubated in a CO2 incubator at 37° C. for 24 h; the cells are digested with 0.25% trypsin and counted, the solution is centrifuged at 3000 rpm for 5 min, and the cells are collected.
# as §2, §3, §4, §5, §6, §7
# 3.9 The membrane is washed for 3 times with PBST, 5 min each time. A secondary antibody is added and the membrane is incubated at room temperature for more than 2 h. […]
# TLR-4 = assay: Western blot of TLR-4 protein in LPS-induced rat synovial cells; format: cell-based
# Method: as §1, §2, §3, §4, §5, §6
# 3.8 The membrane is washed for 3 times with PBST, 5 min each time. […]
# [2] = system: tumor in BALB/c nude mice; assay: in vivo pharmacodynamics (antitumor) of PEG-modified HM-3 in BALB/c nude mice
# Excerpt: Four different types of mPEG-ALD and mPEG-SC with different molecular weights are selected to modify the polypeptide […](named HM-3), i.e., mPEG-ALD5k, mPEG-ALD10k, mPEG-SC10k, mPEG-SC20k, and modification reaction conditions are explored and optimized.
# [3] = with the increase of the dosage
Substance,Fluorescence intensity (in vivo imaging) (TNF-α; 0 h),Fluorescence intensity (in vivo imaging) (TNF-α; 2 h),Fluorescence intensity (in vivo imaging) (TNF-α; 4 h),Fluorescence intensity (in vivo imaging) (TNF-α; 8 h),Fluorescence intensity (in vivo imaging) (TNF-α; 12 h),Fluorescence intensity (in vivo imaging) (TNF-α; 24 h),Fluorescence intensity (in vivo imaging) (TNF-α; 48 h),Fluorescence intensity (in vivo imaging) (TNF-α; 72 h),other results
Adalimumab [reference compound],18.048 ± 4.770 ×10^5,18.480 ± 4.887 ×10^5,20.209 ± 2.261 ×10^5,25.70±2.67 ×10^5 and 25.703 ± 2.668 ×10^5,22.40±5.06 ×10^5 and 22.396 ± 5.065 ×10^5,13.89±8.53 ×10^5 and 13.891 ± 0.853 ×10^5,14.76±3.58 ×10^5 and 14.765 ± 3.580 ×10^5,19.87±3.92 ×10^5 and 19.868 ± 3.924 ×10^5,effect on integrin pathway angiogenesis [1]: no inhibitory effect
mPEG-SC20k-Ile-Val-Arg-Arg-Ala-Asp-Arg-Ala-Ala-Val-Pro-Gly-Gly-Gly-Gly-Arg-Gly-Asp ({mPEG‑SC 20k}-IVRRADRAAVPGGGGRGD) [polypeptide III],10.851 ± 3.014 ×10^5,13.880 ± 5.266 ×10^5,11.926 ± 2.119 ×10^5,19.37±3.41 ×10^5 and 19.367 ± 3.408 ×10^5,18.65±9.09 ×10^5 and 18.653 ± 9.093 ×10^5,12.65±2.39 ×10^5 and 12.654 ± 2.390 ×10^5,14.37±6.24 ×10^5 and 14.037 ± 6.238 ×10^5,13.40±1.17 ×10^5 and 13.402 ± 1.171 ×10^5,"expression of VEGF in HUVECs (HUVECs): down-regulated; expression of integrin αν, integrin β3, MEK1, p-MEK1, PI3K, AKT1, p-AKT1, ERK1/2 and p-ERK1/2 in HUVECs (HUVECs): down-regulated; dose with the best inhibitory effect on the expression of Integrin α5, Integrin β1, VEGFR2, HIF-1β, IL-6 proteins [1]: 13.5 µM; dose with the best inhibitory effect on the expression of TNFR1 protein [1]: 18 µM; dose with the best inhibitory effect on the expression of TNFR2, NF-κB and TNF-α proteins [1]: 4.5 µM; expression of HIF-1β and IL-6 protein in macrophages [1, 3]: down-regulated; expression of NF-κB protein factors in nuclei [1, 3]: down-regulated; expression of TNFR1 and TNFR2 protein factors in macrophages [1, 3]: down-regulated; expression of integrin α5, Integrin β1 and VEGFR2 proteins in macrophages [1, 3]: down-regulated; dose with the best inhibitory effect on the expression of TLR-4 protein (TLR-4): 13.5 µM; expression of TLR-4 protein in rat synovial cells (TLR-4; with the increase of dosage): down-regulation; antitumor effect in vivo ([2]; BALB/c nude mice): 50.23%; toxicity at an effective dose in vivo ([2]; body weight of nude mice basically stable): very low toxicity or no toxicity; elimination half life in vivo ([2]; compared with HM-3): greatly improved"
